Some results are limits rather than exact numbers.

A short description of series [1]: In vitro cytotoxicity, MTT cell viability assay in HepG2 cells. The class given is cell-based. Particulars: human, Cytotoxicity CC50. A digest of the protocol: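 HepG2 cells incubated 7 days at 37 °C, 5% CO2 with compounds from 30 μM to 1.0 nM (8 half-log dilutions). Viability read as MTT formazan absorbance at 492 nm, normalised to vehicle controls; CC50 from 4-parameter non-linear regression.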

Series [2] deals with HBV replication in HepAD38 cells. The series is described as follows: Anti-HBV activity in HepAD38 cells, extracellular HBV DNA by QPCR. The class given is cell-based, HBV (genotype D, serotype ayw). Particulars: Hepatitis B virus, HePAD38, 168 h, read-out: Anti-HBV EC50, HepAD38 cells, extracellular HBV DNA by QPCR, 7 days of incubation. A digest of the protocol: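 HepAD38 cells (HepG2 with tet-repressible HBV genotype D genome) seeded overnight, tetracycline removed, then treated 7 days with compounds (half-log dilutions, 30 μM–10 nM; 1:200 from DMSO). Supernatant HBV DNA quantified by QPCR against standard curve; % inhibition vs vehicle, EC50 by 4-parameter fit.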

`Cc1cc(NC(=O)c2ccc(F)c(C(F)(F)C(=O)N3[C@@H]4COC[C@H]3C[C@H](NS(C)(=O)=O)C4)c2)ccc1F` [Example 306, 3-(1,1-difluoro-2-((1R,5S,7r)-7-(methylsulfonamido)-3-oxa-9-azabicyclo[3.3.1]nonan-9-yl)-2-oxoethyl)-4-fluoro-N-(4-fluoro-3-methylphenyl)benzamide]: the CC50 at 7 days in series [1] was 5 to 30 µM. In addition, the 50% effective concentration (EC50) in series [2] was less than 5 µM.

For `Cc1cc(NC(=O)c2cccc(C(F)(F)C(=O)N3CCC(O)CC3)c2)ccc1F` [Example 14, 3-(1,1-difluoro-2-(4-hydroxypiperidin-1-yl)-2-oxoethyl)-N-(4-fluoro-3-methylphenyl)benzamide], in series [1], the CC50 at 7 days fell in the range of 5 to 30 µM. For the same compound, the EC50 in series [2] is less than 5 µM.

In turn, `Cc1cc(NC(=O)c2ccc(F)c(C(F)(F)C(=O)N3CCc4[nH]ncc4C3)c2)ccc1F` [Example 204, 3-(1,1-difluoro-2-oxo-2-(1,4,6,7-tetrahydro-5H-pyrazolo[4,3-c]pyridin-5-yl)ethyl)-4-fluoro-N-(4-fluoro-3-methylphenyl)benzamide] displayed a cytotoxic concentration (CC50) at 7 days in series [1] of 5 to 30 µM. Further, the EC50 in series [2] is less than 5 µM.

Take `COc1ccc(C(=O)Nc2ccc(F)c(C)c2)cc1C(F)(F)C(=O)N1CCC(O)CC1` [Example 94, 3-(1,1-difluoro-2-(4-hydroxypiperidin-1-yl)-2-oxoethyl)-N-(4-fluoro-3-methylphenyl)-4-methoxybenzamide]: the CC50 at 7 days in series [1] is more than 30 µM. In addition, in series [2], the EC50 was less than 5 µM.

For `Cc1cc(NC(=O)c2cc(C(F)(F)C(=O)N3CCC(B(O)O)CC3)n(C)c2)ccc1F` [Example 122, (1-(2,2-difluoro-2-(4-((4-fluoro-3-methylphenyl)carbamoyl)-1-methyl-1H-pyrrol-2-yl)acetyl)piperidin-4-yl)boronic acid], in series [1], the CC50 at 7 days is more than 30 µM. Moreover, the EC50 in series [2] lay within 5 to 30 µM.

In turn, `Cc1cc(NC(=O)c2ccc(F)c(C(F)(F)C(=O)N3[C@@H]4CCC[C@H]3C[C@H](N)C4)c2)ccc1F` [Example 337, 3-(2-((1R,3s,5S)-3-amino-9-azabicyclo[3.3.1]nonan-9-yl)-1,1-difluoro-2-oxoethyl)-4-fluoro-N-(4-fluoro-3-methylphenyl)benzamide] yielded a CC50 at 7 days in series [1] of 5 to 30 µM. Further, the half-maximal effective concentration (EC50) in series [2] is less than 5 µM.

`Cc1cc(NC(=O)c2ccc(F)c(C(F)(F)C(=O)N3CCC(NS(C)(=O)=O)C(F)(F)C3)c2)ccc1F` (stereo not shown) [Example 335, 3-(2-(3,3-difluoro-4-(methylsulfonamido)piperidin-1-yl)-1,1-difluoro-2-oxoethyl)-4-fluoro-N-(4-fluoro-3-methylphenyl)benzamide]: the cytotoxic concentration (CC50) at 7 days in series [1] is more than 30 µM. Besides, the EC50 in series [2] was less than 5 µM.

Take `Cc1cc(NC(=O)c2ccc(F)c(C(F)(F)C(=O)N3CCC(N)C(C)(C)C3)c2)ccc1F` (stereo not shown) [Example 285, 3-(2-(4-amino-3,3-dimethylpiperidin-1-yl)-1,1-difluoro-2-oxoethyl)-4-fluoro-N-(4-fluoro-3-methylphenyl)benzamide]: the CC50 at 7 days in series [1] was 5 to 30 µM. In series [2], the EC50 was less than 5 µM.

On to `O=C(Nc1cc(F)c(F)c(F)c1)c1ccc(F)c(C(F)(F)C(=O)N2[C@@H]3CC[C@H]2C[C@H](O)C3)c1` [Example 188, 3-(1,1-difluoro-2-((1R,3s,5S)-3-hydroxy-8-azabicyclo[3.2.1]octan-8-yl)-2-oxoethyl)-4-fluoro-N-(3,4,5-trifluorophenyl)benzamide], for which the CC50 at 7 days in series [1] is 5 to 30 µM. For the same compound, the concentration giving a half-maximal response (EC50) in series [2] is less than 5 µM.

`COCC(C)(C)NC(=O)C(F)(F)c1cc(C(=O)Nc2ccc(F)c(C)c2)cn1C` [Example 132, 5-(1,1-difluoro-2-((1-methoxy-2-methylpropan-2-yl)amino)-2-oxoethyl)-N-(4-fluoro-3-methylphenyl)-1-methyl-1H-pyrrole-3-carboxamide] had a CC50 at 7 days in series [1] of more than 30 µM. For the same compound, the EC50 in series [2] was less than 5 µM.

The compound `CCn1ccc(C(=O)Nc2ccc(F)c(C)c2)c1C(F)(F)C(=O)NC(C)(C)C` [Example 135, 2-(2-(tert-butylamino)-1,1-difluoro-2-oxoethyl)-1-ethyl-N-(4-fluoro-3-methylphenyl)-1H-pyrrole-3-carboxamide] had a CC50 at 7 days in series [1] of more than 30 µM. Moreover, in series [2], the EC50 was 5 to 30 µM.

In series [1], `Cc1ccc(C(=O)Nc2ccc(F)c(F)c2)cc1C(F)(F)C(=O)NC(C)C` [Example 9, 3-(1,1-difluoro-2-(isopropylamino)-2-oxoethyl)-N-(3,4-difluorophenyl)-4-methylbenzamide] came in with a CC50 at 7 days of more than 30 µM. For the same compound, the EC50 in series [2] is more than 30 µM.

In the case of `Cc1cc(NC(=O)c2ccc(F)c(C(F)(F)C(=O)N3[C@H](C)CN(S(=O)(=O)c4cccnc4)C[C@@H]3C)c2)ccc1F` [Example 290, 3-(2-((2S,6R)-2,6-dimethyl-4-(pyridin-3-ylsulfonyl)piperazin-1-yl)-1,1-difluoro-2-oxoethyl)-4-fluoro-N-(4-fluoro-3-methylphenyl)benzamide], the CC50 at 7 days in series [1] was in the range of 5 to 30 µM. Also, in series [2], the half-maximal effective concentration (EC50) is less than 5 µM.

In series [1], `Cc1cc(NC(=O)c2cc(C(C)(O)C(=O)NC(C)(C)C)cn2C)ccc1F` (stereo not shown) [Example 123, 4-(1-(tert-butylamino)-2-hydroxy-1-oxopropan-2-yl)-N-(4-fluoro-3-methylphenyl)-1-methyl-1H-pyrrole-2-carboxamide] came in with a CC50 at 7 days of 5 to 30 µM. Moreover, in series [2], the EC50 was in the range of 5 to 30 µM.

In the case of `Cc1cc(NC(=O)c2ccc(F)c(C(F)(F)C(=O)N3CCC(N)C(C)(C)C3)n2)ccc1F` (stereo not shown) [Example 304, 6-(2-(4-amino-3,3-dimethylpiperidin-1-yl)-1,1-difluoro-2-oxoethyl)-5-fluoro-N-(4-fluoro-3-methylphenyl)picolinamide], the CC50 at 7 days in series [1] was 5 to 30 µM. The EC50 in series [2] was less than 5 µM.

Compound `Cc1cc(NC(=O)c2ccc(F)c(C(F)(F)C(=O)N3[C@@H]4CC[C@H]3C[C@H](O)C4)c2)cc(F)n1` [Example 223, 3-(1,1-difluoro-2-((1R,3s,5S)-3-hydroxy-8-azabicyclo[3.2.1]octan-8-yl)-2-oxoethyl)-4-fluoro-N-(2-fluoro-6-methylpyridin-4-yl)benzamide] registered a CC50 at 7 days in series [1] of less than 5 µM. Also, the EC50 in series [2] was less than 5 µM.

In series [1], `CC(=O)N[C@@H]1C[C@H]2CC[C@@H](C1)N2C(=O)C(F)(F)c1cc(C(=O)Nc2ccc(F)c(C)c2)ccc1F` [Example 227, 3-(2-((1R,3s,5S)-3-acetamido-8-azabicyclo[3.2.1]octan-8-yl)-1,1-difluoro-2-oxoethyl)-4-fluoro-N-(4-fluoro-3-methylphenyl)benzamide] had a CC50 at 7 days of 5 to 30 µM. Besides, the concentration for a half-maximal effect (EC50) in series [2] was less than 5 µM.

As to `Cc1cc(NC(=O)c2ccc(F)c(C(F)(F)C(=O)N3CCC(NS(C)(=O)=O)C(C)(C)C3)c2)ccc1F` (stereo not shown) [Example 286, 3-(2-(3,3-dimethyl-4-(methylsulfonamido)piperidin-1-yl)-1,1-difluoro-2-oxoethyl)-4-fluoro-N-(4-fluoro-3-methylphenyl)benzamide], the CC50 at 7 days in series [1] is 5 to 30 µM. Besides, the EC50 in series [2] is less than 5 µM.

`N#Cc1cc(NC(=O)c2ccc(F)c(C(F)(F)C(=O)N3CCC(O)CC3)c2)ccc1F` [Example 88, N-(3-cyano-4-fluorophenyl)-3-(1,1-difluoro-2-(4-hydroxypiperidin-1-yl)-2-oxoethyl)-4-fluorobenzamide]: the CC50 at 7 days in series [1] is more than 30 µM. The EC50 in series [2] is less than 5 µM.

For `O=C(Nc1cc(F)c(F)c(F)c1)c1ccc(F)c(C(F)(F)C(=O)N2CCC(O)CC2)c1` [Example 86, 3-(1,1-difluoro-2-(4-hydroxypiperidin-1-yl)-2-oxoethyl)-4-fluoro-N-(3,4,5-trifluorophenyl)benzamide], in series [1], the CC50 at 7 days was 5 to 30 µM. For the same compound, the EC50 in series [2] was less than 5 µM.

Regarding `CC(C)NC(=O)C(F)(F)c1cc(C(=O)Nc2ccc(F)c(F)c2)ccc1F` [Example 7, 3-(1,1-difluoro-2-(isopropylamino)-2-oxoethyl)-N-(3,4-difluorophenyl)-4-fluorobenzamide], the cytotoxic concentration (CC50) at 7 days in series [1] was in the range of 5 to 30 µM. Moreover, the EC50 in series [2] was 5 to 30 µM.

With `O=C(Nc1ccc(F)c(F)c1)c1ccc(F)c(C(F)(F)C(=O)NCc2ccncc2)c1` [Example 51, 3-(1,1-difluoro-2-oxo-2-((pyridin-4-ylmethyl)amino)ethyl)-N-(3,4-difluorophenyl)-4-fluorobenzamide], the CC50 at 7 days in series [1] was more than 30 µM. For the same compound, the EC50 in series [2] is less than 5 µM.

The compound `O=C(Nc1ccc(F)c(F)c1)c1ccc(F)c(C(F)(F)C(=O)N(CCO)CCO)c1` [Example 16, 3-(2-(bis(2-hydroxyethyl)amino)-1,1-difluoro-2-oxoethyl)-N-(3,4-difluorophenyl)-4-fluorobenzamide] came in with a CC50 at 7 days in series [1] of more than 30 µM. Further, in series [2], the 50% effective concentration (EC50) fell in the range of 5 to 30 µM.

Consider `COc1ccc(CNC(=O)C(F)(F)c2cc(C(=O)Nc3ccc(F)c(F)c3)ccc2F)c(OC)c1` [Example 64, N-(3,4-difluorophenyl)-3-(2-((2,4-dimethoxybenzyl)amino)-1,1-difluoro-2-oxoethyl)-4-fluorobenzamide], for which the 50% cytotoxic concentration (CC50) at 7 days in series [1] lay in the range of 5 to 30 µM. Also, in series [2], the EC50 was in the range of 5 to 30 µM.

As for `Cc1cc(NC(=O)c2ccc([N+](=O)[O-])c(C(F)(F)C(=O)N3CCC(O)CC3)c2)ccc1F` [Example 298, 3-(1,1-difluoro-2-(4-hydroxypiperidin-1-yl)-2-oxoethyl)-N-(4-fluoro-3-methylphenyl)-4-nitrobenzamide], in series [1], the CC50 at 7 days lay in the range of 5 to 30 µM. The EC50 in series [2] is less than 5 µM.

Regarding `CC(C)(CCO)NC(=O)C(F)(F)c1cc(C(=O)Nc2ccc(F)c(F)c2)ccc1F` [Example 45, 3-(1,1-difluoro-2-((4-hydroxy-2-methylbutan-2-yl)amino)-2-oxoethyl)-N-(3,4-difluorophenyl)-4-fluorobenzamide], the CC50 at 7 days in series [1] lay in the range of 5 to 30 µM. Besides, the EC50 in series [2] is less than 5 µM.

What is called CC50 is the concentration that lowers cell viability or growth by half. High values mean lower toxicity to the cells, low ones greater toxicity to the cells. One may read the EC50 as the concentration at which the effect is half-maximal.

Values taken from patent publication US11247965B2 (VenatoRx Pharmaceuticals, Inc., priority 2017, dated 2022).
